27 molecules from patent US9701689B2, “Substituted pyridines and pyridazines as CCR10 receptor inhibitors” (KYOWA HAKKO KIRIN CO., LTD., priority 2012, dated 2017) can be followed below.

The structures appear in SMILES notation.

The target in this experiment is T1, human CCR10 (Homo sapiens, UniProt P46092).
T1 construct: expressed in transfected cells; host or cells: KJMGER8 cells (Namalwa cell-derived line), beta-estradiol-induced; hCCR10G16 cells
T1 sequence (P46092 1-362): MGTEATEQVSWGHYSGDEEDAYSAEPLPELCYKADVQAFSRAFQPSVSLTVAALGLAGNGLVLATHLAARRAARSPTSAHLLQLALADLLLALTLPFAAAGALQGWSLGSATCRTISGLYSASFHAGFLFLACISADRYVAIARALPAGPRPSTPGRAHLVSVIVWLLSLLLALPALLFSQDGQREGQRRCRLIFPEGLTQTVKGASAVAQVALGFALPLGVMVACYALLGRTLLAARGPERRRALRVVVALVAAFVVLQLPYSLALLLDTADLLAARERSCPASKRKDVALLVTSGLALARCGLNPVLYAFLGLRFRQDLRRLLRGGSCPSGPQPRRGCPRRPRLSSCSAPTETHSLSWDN
Nature of the experiment: CCR10 antagonistic effect: calcium assay of human CCR10 (CTACK-induced increase of intracellular calcium in hCCR10G16 cells). The class given is cell-based. Particulars: at a concentration of not more than 1000 nmol/L; human CCR10-expressing hCCR10G16 cells, 300 nmol/L CTACK added; read-out: inhibition of increase in the calcium ion concentration. In a few lines: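 KJMGER8-derived hCCR10G16 cells (CCR10 plus Gα16, induced 24 h with 10 nmol/L β-estradiol), Fluo-3 loaded, preincubated with compound 30 min at 37 °C. Stimulated with CTACK (300 nmol/L solution before addition); calcium read ~5 min by FDSS, max−min fluorescence; % inhibition vs control.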

For the molecule `Cc1cccc(Nc2c(C(=O)N3CCC(c4ccc(F)cc4)CC3)cnc(S(=O)(=O)Nc3cc(C)ns3)c2C)c1` [Compound 276, 5-[4-(4-fluorophenyl)piperidine-1-carbonyl]-3-methyl-N-(3-methylisothiazol-5-yl)-4-(m-tolylamino)pyridine-2-sulfonamide], the inhibition at up to 1 µM is at least 50%. With `Cc1cc(NS(=O)(=O)c2ncc(C(=O)N3CCC(c4ccc(F)cc4)CC3)c(Nc3ccccc3)c2C)sn1` [Compound 277, 5-[4-(4-fluorophenyl)piperidine-1-carbonyl]-3-methyl-N-(3-methylisothiazol-5-yl)-4-(phenylamino)pyridine-2-sulfonamide], the inhibition at up to 1 µM was at least 50%.

`NS(=O)(=O)c1ncc(C(=O)N2CCN(c3ccc(F)cc3)C(=O)C2)c(NC2(c3ccccc3)CC2)c1Cl` [Compound 278, 3-chloro-5-[4-(4-fluorophenyl)-3-oxopiperazine-1-carbonyl]-4-(1-phenylcyclopropylamino)pyridine-2-sulfonamide]: the inhibition at up to 1 µM was at least 50%. On to `Cc1c(S(=O)(=O)Nc2ccon2)ncc(C(=O)N2CCC(c3ccc(F)cc3)CC2)c1Nc1ccc(Cl)c(Cl)c1` [Compound 279, 4-(3,4-dichlorophenylamino)-5-[4-(4-fluorophenyl)piperidine-1-carbonyl]-N-(isoxazol-3-yl)-3-methylpyridine-2-sulfonamide], for which the inhibition at up to 1 µM is at least 50%. The figure for `Cc1c(S(=O)(=O)Nc2ccon2)ncc(C(=O)N2CCC(c3ccc(F)cc3)CC2)c1Nc1ccc(Cl)cc1Cl` [Compound 280, 4-(2,4-dichlorophenylamino)-5-[4-(4-fluorophenyl)piperidine-1-carbonyl]-N-(isoxazol-3-yl)-3-methylpyridine-2-sulfonamide] is at least 50%; for `Cc1c(S(=O)(=O)Nc2ccon2)ncc(C(=O)N2CCC(c3ccc(F)cc3)CC2)c1Nc1cc(Cl)ccc1Cl` [Compound 281, 4-(2,5-dichlorophenylamino)-5-[4-(4-fluorophenyl)piperidine-1-carbonyl]-N-(isoxazol-3-yl)-3-methylpyridine-2-sulfonamide] it is at least 50%; for `CN(Nc1c(C(=O)N2CCC(c3ccc(F)cc3)CC2)cnc(S(N)(=O)=O)c1Cl)c1ccccc1` [Compound 282, 3-chloro-5-[4-(4-fluorophenyl)piperidine-1-carbonyl]-4-(2-methyl-2-phenylhydrazinyl)pyridine-2-sulfonamide] it is at least 50%. As for `NS(=O)(=O)c1ncc(C(=O)N2CC(c3ccc(F)cc3)C2)c(Nc2cccc(Cl)c2)c1Cl` [Compound 283, 3-chloro-4-(3-chlorophenylamino)-5-[3-(4-fluorophenyl)azetidine-1-carbonyl]pyridine-2-sulfonamide], the inhibition at up to 1 µM was at least 50%. As for `Cc1c(S(N)(=O)=O)ncc(C(=O)N2CC(c3ccc(F)cc3)C2)c1NCc1ccccc1` [Compound 284, 4-(benzylamino)-5-[3-(4-fluorophenyl)azetidine-1-carbonyl]-3-methylpyridine-2-sulfonamide], the figure is at least 50%; as for `Cc1c(S(N)(=O)=O)ncc(C(=O)N2CC(c3ccc(F)cc3)C2)c1Nc1cccc(Cl)c1` [Compound 285, 4-(3-chlorophenylamino)-5-[3-(4-fluorophenyl)azetidine-1-carbonyl]-3-methylpyridine-2-sulfonamide], at least 50%. The figure for `CCc1c(S(=O)(=O)Nc2ccon2)ncc(C(=O)N2CCC(c3ccc(F)cc3)CC2)c1Nc1ccccc1C` [Compound 287, 3-ethyl-5-[4-(4-fluorophenyl)piperidine-1-carbonyl]-N-(isoxazol-3-yl)-4-(o-tolylamino)pyridine-2-sulfonamide] is at least 50%. As to `N#Cc1ccc(C#N)c(Nc2c(C(=O)N3CCC(c4ccc(F)cc4)CC3)cnc(S(N)(=O)=O)c2Cl)c1` [Compound 288, 3-chloro-4-(2,5-dicyanophenylamino)-5-[4-(4-fluorophenyl)piperidine-1-carbonyl]pyridine-2-sulfonamide], the inhibition at up to 1 µM is at least 50%. The figure for `Cc1ccc(Oc2c(C(=O)N3CCC(c4ccc(F)cc4)CC3)cnc(S(N)(=O)=O)c2C)cc1` [Compound 289, 5-[4-(4-fluorophenyl)piperidine-1-carbonyl]-3-methyl-4-(p-tolyloxy)pyridine-2-sulfonamide] is at least 50%; for `N#Cc1ccc(Cl)cc1Nc1c(C(=O)N2CCC(c3ccc(F)cc3)CC2)cnc(S(N)(=O)=O)c1Cl` [Compound 290, 3-chloro-4-(5-chloro-2-cyanophenylamino)-5-[4-(4-fluorophenyl)piperidine-1-carbonyl]pyridine-2-sulfonamide] it is at least 50%; for `Cc1ccccc1Nc1c(C(=O)N2CC(c3ccc(F)cc3)C2)cnc(S(=O)(=O)Nc2ccon2)c1C` [Compound 292, 5-[3-(4-fluorophenyl)azetidine-1-carbonyl]-N-(isoxazol-3-yl)-3-methyl-4-(o-tolylamino)pyridine-2-sulfonamide] it is at least 50%. The figure for `CCc1c(S(=O)(=O)Nc2ccon2)ncc(C(=O)N2CCC(c3ccc(F)cc3)CC2)c1Nc1cccc(F)c1C` [Compound 294, 3-ethyl-4-(3-fluoro-2-methylphenylamino)-5-[4-(4-fluorophenyl)piperidine-1-carbonyl]-N-(isoxazol-3-yl)pyridine-2-sulfonamide] is at least 50%; for `COC1(c2ccc(F)cc2)CCN(C(=O)c2cnc(S(N)(=O)=O)c(Cl)c2NC2(c3ccccc3)CC2)CC1` [Compound 295, 3-chloro-5-[4-(4-fluorophenyl)-4-methoxypiperidine-1-carbonyl]-4-(1-phenylcyclopropylamino)pyridine-2-sulfonamide] it is at least 50%. In the case of `NS(=O)(=O)c1ncc(C(=O)N2CCC3(CC2)COc2ccccc23)c(NC2(c3ccccc3)CC2)c1Cl` [Compound 297, 3-chloro-4-(1-phenylcyclopropylamino)-5-(2H-spiro[benzofuran-3,4′-piperidin]-1′-ylcarbonyl)pyridine-2-sulfonamide], the inhibition at up to 1 µM is at least 50%. As to `Cc1c(S(=O)(=O)Nc2ccon2)ncc(C(=O)N2CCC(c3ccc(F)cc3)CC2)c1Nc1ccc(C#N)cc1` [Compound 298, 4-(4-cyanophenylamino)-5-[4-(4-fluorophenyl)piperidine-1-carbonyl]-N-(isoxazol-3-yl)-3-methylpyridine-2-sulfonamide], the inhibition at up to 1 µM was at least 50%.

Turning to `Cc1cc(NS(=O)(=O)c2ncc(C(=O)N3CCC(c4ccc(F)cc4)CC3)c(Nc3ccc(F)cc3)c2C)sn1` [Compound 299, 5-[4-(4-fluorophenyl)piperidine-1-carbonyl]-4-(4-fluorophenylamino)-3-methyl-N-(3-methylisothiazol-5-yl)pyridine-2-sulfonamide], the inhibition at up to 1 µM is at least 50%.

For the molecule `Cc1ccc(Nc2c(C(=O)N3CCC(c4ccc(F)cc4)CC3)cnc(S(=O)(=O)Nc3cc(C)ns3)c2C)cc1` [Compound 300, 5-[4-(4-fluorophenyl)piperidine-1-carbonyl]-3-methyl-N-(3-methylisothiazol-5-yl)-4-(p-tolylamino)pyridine-2-sulfonamide], the inhibition at up to 1 µM was at least 50%. Regarding `Cc1cc(NS(=O)(=O)c2ncc(C(=O)N3CCC(c4ccc(F)cc4)CC3)c(Nc3ccc(F)c(F)c3)c2C)sn1` [Compound 301, 4-(3,4-difluorophenylamino)-5-[4-(4-fluorophenyl)piperidine-1-carbonyl]-3-methyl-N-(3-methylisothiazol-5-yl)pyridine-2-sulfonamide], the inhibition at up to 1 µM was at least 50%.

`NS(=O)(=O)c1ncc(C(=O)N2CCC(c3ccc(F)cc3)CC2)c(Nc2ccc(Cl)cc2)c1Cl` [Compound 302, 3-chloro-4-(4-chlorophenylamino)-5-[4-(4-fluorophenyl)piperidine-1-carbonyl]pyridine-2-sulfonamide]: the inhibition at up to 1 µM was at least 50%. For the molecule `CC(=O)c1ccc(C)c(NC2=CC=NC(S(N)(=O)=O)C2(Cl)C(=O)N2CCC(c3ccc(F)cc3)CC2)c1` (stereo not drawn) [Compound 303, 4-(5-acetyl-2-methylphenylamino)-3-chloro-3-[4-(4-fluorophenyl)piperidine-1-carbonyl]pyridine-2-sulfonamide], the inhibition at up to 1 µM was at least 50%. The figure for `COC1(c2ccc(F)cc2)CCN(C(=O)c2cnc(S(N)(=O)=O)c(C)c2Nc2ccccc2C)CC1` [Compound 304, 5-[4-(4-fluorophenyl)-4-methoxypiperidine-1-carbonyl]-3-methyl-4-(o-tolylamino)pyridine-2-sulfonamide] is at least 50%; for `Cc1ccccc1Nc1c(C(=O)N2CCC3(CC2)COc2ccccc23)cnc(S(N)(=O)=O)c1C` [Compound 305, 3-methyl-5-(2H-spiro[benzofuran-3,4′-piperidin]-1′-ylcarbonyl)-4-(o-tolylamino)pyridine-2-sulfonamide] it is at least 50%.

On to `COC1(c2ccc(F)cc2)CCN(C(=O)c2cnc(S(N)(=O)=O)c(Cl)c2Nc2cccc(Cl)c2)CC1` [Compound 306, 3-chloro-4-(3-chlorophenylamino)-5-[4-(4-fluorophenyl)-4-methoxypiperidine-1-carbonyl]pyridine-2-sulfonamide], for which the inhibition at up to 1 µM is at least 50%.
